In patent US20240174647A1 (NEURON23, INC., priority 2022, published 2024):

biological target: wt human LRRK2, catalytic site (Homo sapiens (Human), UniProt Q5S007); experiment: TR-FRET LanthaScreen Tb Kinase Activity Assay (LRRK2 kinase inhibition); format: biochemical; conditions: 2 nM wt human LRRK2, 400 nM fluorescein-ERM (LRRKtide) peptide, 38 μM ATP, 120 minutes at room temperature
Procedure, shortened: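 LanthaScreen TR-FRET with 2 nM wt human LRRK2 catalytic site, 400 nM fluorescein-ERM (LRRKtide) peptide and 38 µM ATP in Kinase Buffer A; 120 min at room temperature. Phosphorylation detected with EDTA and Tb-anti-pLRRKtide after 60 min; IC50 from emission ratios.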

Chain of wt human LRRK2, catalytic site (Q5S007 1879-2138): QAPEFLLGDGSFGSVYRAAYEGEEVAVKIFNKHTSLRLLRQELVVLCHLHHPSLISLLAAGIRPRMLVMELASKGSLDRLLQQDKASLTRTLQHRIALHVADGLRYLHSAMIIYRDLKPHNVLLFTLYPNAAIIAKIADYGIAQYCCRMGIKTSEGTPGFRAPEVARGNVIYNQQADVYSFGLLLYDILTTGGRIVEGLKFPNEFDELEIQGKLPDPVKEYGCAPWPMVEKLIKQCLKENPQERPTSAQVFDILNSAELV

Row | Compound | IC50 [nM]
1 | CNc1nc(Nc2cnn3ccc(C#N)cc23)ncc1C(F)(F)F [Example 118, 3-[[4-(methylamino)-5-(trifluoromethyl)pyrimidin-2-yl]amino]pyrazolo[1,5-a]pyridine-5-carbonitrile] | < 50
2 | FC(F)(F)c1cnc(Nc2cccc3c2cnn3C2CC2)nc1NC1CC1 [Example 190, N^4-cyclopropyl-N^2-(1-cyclopropyl-1H-indazol-4-yl)-5-(trifluoromethyl) pyrimidine-2,4-diamine] | < 50
3 | CCn1ncc2c(Nc3ncc(C(F)(F)F)c(NC)n3)cccc21 [Example 98, N2-(1-ethyl-1H-indazol-4-yl)-N4-methyl-5-(trifluoromethyl)pyrimidine-2,4 diamine] | < 50
4 | Cc1n[nH]c2nc(Nc3cccc4c3cnn4CC(C)(C)O)nc(NC3CC3)c12 [Example 204, 1-[4-[[4-(cyclopropylamino)-3-methyl-1H-pyrazolo[3,4-d]pyrimidin-6-yl]amino]indazol-1-yl]-2-methyl-propan-2-ol] | < 50
5 | CC(C)(C#N)Cn1ncc2c(Nc3ncc(C(F)(F)F)c(NC4CC4)n3)cccc21 [Example 200, 3-[4-[[4-(cyclopropylamino)-5-(trifluoromethyl)pyrimidin-2-yl]amino]indazol-1-yl]-2,2-dimethyl-propanenitrile] | < 50
6 | COCCS(=O)(=O)n1ncc2c(Nc3ncc(C(F)(F)F)c(NC4CC4)n3)cccc21 [Example 136, N^4-cyclopropyl-N^2-(1-((2-methoxyethyl)sulfonyl)-1H-indazol-4-yl)-5-(trifluoromethyl)pyrimidine-2,4-diamine] | < 50
7 | Cc1ccc(Nc2ncc(C(F)(F)F)c(NC3CC3)n2)c2cnn(CCS(C)(=O)=O)c12 [Example 174, N4-cyclopropyl-N2-(7-methyl-1-(2-(methylsulfonyl)ethyl)-1H-indazol-4-yl)-5-(trifluoromethyl)pyrimidine-2,4-diamine] | < 50
8 | CC(C)(CS(C)(=O)=O)n1ncc2c(Nc3ncc(C(F)(F)F)c(NC4CC4)n3)cccc21 [Example 195, N^4-cyclopropyl-N^2-(1-(2-methyl-1-(methylsulfonyl)propan-2-yl)-1H-indazol-4-yl)-5-(trifluoromethyl)pyrimidine-2,4-diamine] | < 50
9 | CNc1nc(Nc2ccc3cn(C)nc3c2)ncc1C(F)(F)F [Example 17, N4-methyl-N2-(2-methyl-2H-indazol-6-yl)-5-(trifluoromethyl)pyrimidine-2,4-diamine] | < 50
10 | CNc1nc(Nc2ccc(OC)c3c2cnn3C)ncc1C(F)(F)F [Example 47, N2-(7-methoxy-1-methyl-1H-indazol-4-yl)-N4-methyl-5-(trifluoromethyl) pyrimidine-2,4-diamine] | < 50
11 | CC(C)(C#N)n1ncc2c(Nc3ncc(C(F)(F)F)c(NC4CC4)n3)cccc21 [Example 103, 2-(4-((4-(cyclopropylamino)-5-(trifluoromethyl)pyrimidin-2-yl)amino)-1H-indazol-1-yl)-2-methylpropanenitrile] | < 50
12 | CNc1nc(Nc2cccc3cnn(C)c23)ncc1C(F)(F)F [Example 76, N4-methyl-N2-(1-methyl-1-indazol-7-yl)-5-(trifluoromethyl)pyrimidine-2,4-diamine] | ≥ 200
13 | CNc1nc(Nc2ccc3c(cnn3C)c2)ncc1C(F)(F)F [Example 73, N4-methyl-N2-(1-methyl-1H-indazol-5-yl)-5-(trifluoromethyl)pyrimidine-2,4-diamine] | < 50
14 | CNc1nc(Nc2ccc3c(C(=O)N4CCOCC4)n[nH]c3c2)ncc1C(F)(F)F [Example 9, (6-((4-(methylamino)-5-(trifluoromethyl)pyrimidin-2-yl)amino)-1H-indazol-3-yl)(morpholino)methanone] | < 50
15 | CNc1nc(Nc2ccc(C3CCN(C)CC3)c3c2cnn3CC#N)ncc1C(F)(F)F [Example 109, 2-(4-((4-(methylamino)-5-(trifluoromethyl)pyrimidin-2-yl)amino)-7-(1-methylpiperidin-4-yl)-1H-indazol-1-yl)acetonitrile] | < 50
16 | CCS(=O)(=O)CCn1ncc2c(Nc3ncc(C(F)(F)F)c(NC4CC4)n3)cccc21 [Example 171, N^4-cyclopropyl-N^2-(1-(2-(ethylsulfonyl)ethyl)-1H-indazol-4-yl)-5-(trifluoromethyl)pyrimidine-2,4-diamine] | < 50
17 | CC(C)(C#N)n1ncc2c(Nc3ncc(C(F)(F)F)c(NC4CC4)n3)ccnc21 [Example 189, 2-(4-((4-(cyclopropylamino)-5-(trifluoromethyl)pyrimidin-2-yl)amino)-1H-pyrazolo[3,4-b]pyridin-yl)-2-methylpropanenitrile] | < 50
18 | CNc1nc(Nc2c(C)n(C)c3ccccc23)ncc1C(F)(F)F [Example 64, N2-(1,2-dimethyl-1H-indol-3-yl)-N4-methyl-5-(trifluoromethyl)pyrimidine-2,4-diamine] | 50 to 200
19 | CC(C)Nc1nc(Nc2cccc3c2cnn3C(C)(C)C#N)ncc1C(F)(F)F [Example 108, 2-(4-((4-(isopropylamino)-5-(trifluoromethyl)pyrimidin-2-yl)amino)-1H-indazol-1-yl)-2-methylpropanenitrile] | < 50
20 | CNc1nc(Nc2ccc(OC(F)(F)F)c3c2cnn3CC#N)ncc1C(F)(F)F [Example 84, 2-(4-((4-(methylamino)-5-(trifluoromethyl)pyrimidin-2-yl)amino)-7-(trifluoromethoxy)-1H-indazol-1-yl)acetonitrile] | < 50
21 | CC(C)(C#N)n1ncc2c(Nc3ncc(C(F)(F)F)c(NCCF)n3)cccc21 [Example 144, 2-(4-((4-((2-fluoroethyl)amino)-5-(trifluoromethyl)pyrimidin-2-yl)amino)-1H-indazol-1-yl)-2-methylpropanenitrile] | < 50
22 | CCNc1nc(Nc2cccc3c2cnn3C(C)(C)C#N)ncc1C(F)(F)F [Example 154, 2-(4-((4-(ethylamino)-5-(trifluoromethyl)pyrimidin-2-yl)amino)-1H-indazol-1-yl)-2-methylpropanenitrile] | < 50
23 | CNc1nc(Nc2cc(C(F)(F)F)cc3c2cnn3CC#N)ncc1C(F)(F)F [Example 90, 2-(4-((4-(methylamino)-5-(trifluoromethyl)pyrimidin-2-yl)amino)-6-(trifluoromethyl)-1H-indazol-1-yl)acetonitrile] | < 50
24 | CNc1nc(Nc2cccc3nn(C)cc23)ncc1C(F)(F)F [Example 34, N4-methyl-N2-(2-methyl-2H-indazol-4-yl)-5-(trifluoromethyl)pyrimidine-2,4-diamine] | < 50
25 | CC1(Nc2nc(Nc3cccc4c3cnn4CC#N)ncc2C(F)(F)F)CC1 [Example 105, 2-(4-((4-((1-methylcyclopropyl)amino)-5-(trifluoromethyl)pyrimidin-2-yl)amino)-1H-indazol-1-yl)acetonitrile] | < 50
26 | CNc1nc(Nc2cccc3c2cnn3S(=O)(=O)C2CC2)ncc1C(F)(F)F [Example 33, N2-(1-(cyclopropylsulfonyl)-1H-indazol-4-yl)-N4-methyl-5-(trifluoromethyl)pyrimidine-2,4-diamine] | < 50
27 | CNc1nc(Nc2ccc(C(F)(F)F)c3c2cnn3CC#N)ncc1C(F)(F)F [Example 80, 2-(4-((4-(methylamino)-5-(trifluoromethyl)pyrimidin-2-yl)amino)-7-(trifluoromethyl)-1H-indazol-1-yl)acetonitrile] | < 50
